Here are results for six compounds from patent US12180207B2 (ARRAY BIOPHARMA INC., priority 2018, dated 2024).

SMILES strings stand for the structures. Where only a bound is given, the exact number is not on record here.

In test [1] the target is FGFR1 (SEQ ID NO: 1, amino acids 458-765) (Homo sapiens (Human), UniProt P11362). The test can be described thus: LC/MS FGFR1 kobs assay (covalent protein modification). The class given is binding. The following applies: 500 nM FGFR1, 3 μM compound. In short, it runs like this:
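Covalent labeling of FGFR1 kinase domain (aa 458-765) tracked over time by intact-protein LC/MS after formic acid quench. kobs derived by fitting DMSO-normalized percent unmodified FGFR1 to an exponential decay model.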

The target of test [2] is HEK-293 cells transfected with dox-inducible human wild type FGFR1 (Homo sapiens (Human), UniProt P11362). In words: FGFR1 pERK cell assay. The class given is cell-based. The following applies: HEK-293 dox-inducible FGFR1, 1 hour compound, 100 ng/ml FGF-acidic; maximum concentration 5 μM. In short, it runs like this: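 In HEK-293 cells with dox-induced human wild-type FGFR1, compounds (1:3 dilutions, top 5 μM final) were applied 1 h at 37°C before 5 min stimulation with 100 ng/ml FGF-acidic. Phospho-ERK1/2 measured by MSD sandwich immunoassay; IC50 from 4-parameter fit of POC versus vehicle and control compound.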

The target of test [3] is dephosphorylated FGFR1 (SEQ ID NO: 1, amino acids 458 to 765) (Homo sapiens (Human), UniProt P11362). In words: FGFR enzyme binding assay (HTRF tracer displacement), FGFR1. The following applies: 5 nM dephosphorylated FGFR1, average of multiple determinations if made. In short, it runs like this: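 Kinase and tracer were incubated with compound for 60 minutes at 22° C. Tracer displacement was then measured by HTRF, and results were expressed as POC with 1 μM control inhibitor defining full displacement.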

Test [4] deals with HEK-293 cells transfected with dox-inducible human wild type FGFR3 (Homo sapiens (Human), UniProt P22607). The test can be described thus: FGFR3 pERK cell assay. In kind it is cell-based. The settings on record: HEK-293 dox-inducible FGFR3, 1 hour compound, 100 ng/ml FGF-acidic; maximum concentration 5 μM. In short, it runs like this:
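Doxycycline-induced cells preincubated 1 h at 37 °C with compound (1:3 dilutions, top 5 μM final), then stimulated 5 min with 100 ng/ml FGF-acidic. Lysate phospho-ERK1/2 measured by MSD sandwich assay; IC50 at 50 POC from 4-parameter fit, normalised to no-compound and control-compound wells.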

For test [5], the target named is recombinant human FGFR2 cytoplasmic domain (amino acids 403-822) (Homo sapiens (Human), UniProt P21802). In words: FGFR2 enzyme activity assay (LanthaScreen TR-FRET). The class given is biochemical. The following applies: 15 μM ATP, 20 min incubation at 22° C., average of multiple determinations if made, read-out: FGFR2 Enz FRET IC50. In short, it runs like this: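 Substrate phosphorylation was read by TR-FRET using Eu-PY20 antibody (60 min, 22 °C) after a 20 min, 22 °C reaction. The reaction used 15 μM ATP, 100 nM fluorescent poly-GT peptide and His-tagged FGFR2 403-822 ([…]) at pH 7.5 with 2% DMSO.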
recombinant human FGFR2 cytoplasmic domain (amino acids 403-822), sequence (P21802 402-821): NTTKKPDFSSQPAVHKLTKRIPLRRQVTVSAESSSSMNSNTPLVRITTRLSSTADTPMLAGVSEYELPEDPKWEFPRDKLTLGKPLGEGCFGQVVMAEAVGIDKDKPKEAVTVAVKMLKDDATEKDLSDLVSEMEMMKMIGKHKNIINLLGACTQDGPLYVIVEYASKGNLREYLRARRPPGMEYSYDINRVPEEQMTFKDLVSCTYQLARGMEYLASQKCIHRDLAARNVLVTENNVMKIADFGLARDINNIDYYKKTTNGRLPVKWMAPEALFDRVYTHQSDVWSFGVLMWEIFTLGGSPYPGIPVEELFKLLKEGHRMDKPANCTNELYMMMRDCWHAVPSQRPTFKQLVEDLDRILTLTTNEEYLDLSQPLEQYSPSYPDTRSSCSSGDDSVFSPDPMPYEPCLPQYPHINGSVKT

HEK-293 cells transfected with dox-inducible human wild type FGFR1, sequence (P11362 22-822): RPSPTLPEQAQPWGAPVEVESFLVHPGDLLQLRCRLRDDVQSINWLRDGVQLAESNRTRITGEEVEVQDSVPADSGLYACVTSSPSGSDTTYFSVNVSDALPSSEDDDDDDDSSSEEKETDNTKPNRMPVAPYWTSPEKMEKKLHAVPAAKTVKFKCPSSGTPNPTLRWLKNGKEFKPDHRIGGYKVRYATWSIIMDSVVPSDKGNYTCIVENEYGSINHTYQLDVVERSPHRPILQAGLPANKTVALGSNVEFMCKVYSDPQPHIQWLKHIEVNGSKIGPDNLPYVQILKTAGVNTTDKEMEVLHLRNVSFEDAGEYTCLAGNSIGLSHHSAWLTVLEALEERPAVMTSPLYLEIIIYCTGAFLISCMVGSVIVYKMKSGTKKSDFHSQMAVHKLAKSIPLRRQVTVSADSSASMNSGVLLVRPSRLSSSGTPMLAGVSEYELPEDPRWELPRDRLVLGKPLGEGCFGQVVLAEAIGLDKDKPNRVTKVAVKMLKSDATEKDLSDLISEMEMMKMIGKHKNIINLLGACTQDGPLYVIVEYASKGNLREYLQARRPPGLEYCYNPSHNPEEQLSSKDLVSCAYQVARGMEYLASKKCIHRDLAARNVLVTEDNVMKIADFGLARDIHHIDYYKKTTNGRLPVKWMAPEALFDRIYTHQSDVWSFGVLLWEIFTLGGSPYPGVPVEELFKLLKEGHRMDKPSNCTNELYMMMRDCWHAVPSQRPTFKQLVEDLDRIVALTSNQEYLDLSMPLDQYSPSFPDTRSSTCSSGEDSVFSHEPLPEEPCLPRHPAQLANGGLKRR
HEK-293 cells transfected with dox-inducible human wild type FGFR3, sequence (P22607 23-806): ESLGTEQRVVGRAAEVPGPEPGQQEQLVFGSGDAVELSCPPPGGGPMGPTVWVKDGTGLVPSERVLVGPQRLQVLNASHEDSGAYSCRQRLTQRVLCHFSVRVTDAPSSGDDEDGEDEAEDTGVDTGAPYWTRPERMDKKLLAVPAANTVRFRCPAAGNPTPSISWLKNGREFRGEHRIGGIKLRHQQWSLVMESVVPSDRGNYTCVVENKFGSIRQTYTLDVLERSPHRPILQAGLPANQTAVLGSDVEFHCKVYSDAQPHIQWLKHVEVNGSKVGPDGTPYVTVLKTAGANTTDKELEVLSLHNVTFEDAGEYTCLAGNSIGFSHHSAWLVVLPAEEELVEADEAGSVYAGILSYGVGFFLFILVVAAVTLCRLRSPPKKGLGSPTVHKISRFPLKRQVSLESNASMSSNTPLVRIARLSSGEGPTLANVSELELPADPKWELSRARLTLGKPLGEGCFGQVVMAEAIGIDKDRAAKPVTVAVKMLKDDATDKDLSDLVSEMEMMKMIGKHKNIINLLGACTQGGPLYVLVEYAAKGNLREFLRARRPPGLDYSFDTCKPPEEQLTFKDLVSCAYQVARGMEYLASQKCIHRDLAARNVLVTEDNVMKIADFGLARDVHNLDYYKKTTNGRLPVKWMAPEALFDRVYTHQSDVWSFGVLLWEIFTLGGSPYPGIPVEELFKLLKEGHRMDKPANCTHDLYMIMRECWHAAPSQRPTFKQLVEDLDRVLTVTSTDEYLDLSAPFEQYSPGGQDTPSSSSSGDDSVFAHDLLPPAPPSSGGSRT
FGFR1 (SEQ ID NO: 1, amino acids 458-765), sequence (P11362 458-765): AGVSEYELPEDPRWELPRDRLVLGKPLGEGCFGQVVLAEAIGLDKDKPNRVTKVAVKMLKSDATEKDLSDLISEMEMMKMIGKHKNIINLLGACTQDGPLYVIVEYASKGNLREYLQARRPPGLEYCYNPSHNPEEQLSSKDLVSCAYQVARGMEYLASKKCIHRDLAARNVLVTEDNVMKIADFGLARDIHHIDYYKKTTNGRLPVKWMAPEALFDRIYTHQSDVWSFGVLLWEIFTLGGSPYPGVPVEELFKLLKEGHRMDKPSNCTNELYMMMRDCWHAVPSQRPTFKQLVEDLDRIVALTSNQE
dephosphorylated FGFR1 (SEQ ID NO: 1, amino acids 458 to 765), sequence (P11362 458-765): as above

For `C=CC(=O)N1CC(S(=O)(=O)N2CCC(n3cc(-c4cc(OC)c5c(C#N)cnn5c4)cn3)CC2)C1` [Example 134, 6-(1-(1-((1-acryloylazetidin-3-yl)sulfonyl)piperidin-4-yl)-1H-pyrazol-4-yl)-4-methoxypyrazolo[1,5-a]pyridine-3-carbonitrile], in test [1], the “FGFR1 Enz kobs” value is 0.00288 min⁻¹. For the same compound, the IC50 (usually the concentration at which inhibition is half-maximal) in test [2] is 96 nM; in test [3] it was 35 nM; in test [4] it was 13 nM; in test [5], 16 nM.

In the case of `COc1cc(-c2cnn(C3CCN(C(=O)C4CN(C(=O)/C=C/CO)C4)CC3)c2)cn2ncc(C#N)c12` [Example 141, (E)-6-(1-(1-(1-(4-hydroxybut-2-enoyl)azetidine-3-carbonyl)piperidin-4-yl)-1H-pyrazol-4-yl)-4-methoxypyrazolo [1,5-a]pyridine-3-carbonitrile], in test [1], the “FGFR1 Enz kobs” value stood at 0.00014 min⁻¹. Also, the IC50 in test [2] was at least 5000 nM; in test [3], 40 nM; in test [4], 3910 nM; in test [5], 5 nM.

Turning to `C=CC(=O)N1CC(CN2CCC(n3ncc(-c4cc(OC)c5c(Cl)cnn5c4)c3C)CC2)C1` [Example 118, 1-(3-((4-(4-(3-chloro-4-methoxypyrazolo[1,5-a]pyridin-6-yl)-5-methyl-1H-pyrazol-1-yl)piperidin-1-yl)methyl)azetidin-1-yl)prop-2-en-1-one], in test [1], the “FGFR1 Enz kobs” value stood at 0.00303 min⁻¹. Moreover, the IC50 in test [2] is 674 nM; in test [3], 455 nM; in test [4], 62 nM; in test [5], 239 nM.

Turning to `C=CC(=O)N1CC(F)(C(=O)N2CCC(n3cc(-c4cc(OC)c5c(Cl)cnn5c4)cn3)CC2)C1` [Example 121, 1-(3-(4-(4-(3-chloro-4-methoxypyrazolo[1,5-a]pyridin-6-yl)-1H-pyrazol-1-yl)piperidine-1-carbonyl)-3-fluoroazetidin-1-yl)prop-2-en-1-one], the “FGFR1 Enz kobs” value in test [1] was 0.00369 min⁻¹. Besides, the IC50 in test [2] amounted to 169 nM; in test [3], 114 nM; in test [4], 25 nM; in test [5] it was 13 nM.

Take `COc1cc(-c2ccc(N3CCN(C(=O)C4(F)CN(C(=O)/C=C/CN(C)C)C4)CC3)nc2C)cn2ncc(C#N)c12` [Example 168, (E)-6-(6-(4-(1-(4-(dimethylamino)but-2-enoyl)-3-fluoroazetidine-3-carbonyl)piperazin-1-yl)-2-methylpyridin-3-yl)-4-methoxypyrazolo [1,5-a]pyridine-3-carbonitrile]: in test [1], the “FGFR1 Enz kobs” value came to 0.00847 min⁻¹. Also, the concentration for half-maximal inhibition (IC50) in test [2] is 502 nM; in test [3], 608 nM; in test [4] it was 99 nM; in test [5] it was 50 nM.

Consider `C=CC(=O)N1CC(C(=O)N2C[C@@H]3C[C@H]2CN3c2ccc(-c3cc(OC)c4c(C#N)cnn4c3)cn2)C1` [Example 106, 6-(6-((1S,4S)-5-(1-acryloylazetidine-3-carbonyl)-2,5-diazabicyclo[2.2.1]heptan-2-yl)pyridin-3-yl)-4-methoxypyrazolo[1,5-a]pyridine-3-carbonitrile], for which the “FGFR1 Enz kobs” value in test [1] worked out at 0.00246 min⁻¹. The half-maximal inhibitory concentration (IC50) amounted to 955 nM in test [2], 62 nM in test [3], 244 nM in test [4] and 11 nM in test [5].
